Experimental data taken from patent US20260132127A1, “NOVEL SPIRO COMPOUND” (MITSUBISHI TANABE PHARMA CORPORATION, priority 2021, published 2026).

Biological target: T1, human TRH-DE (Homo sapiens, UniProt Q9UKU6)
T1 construct: expressed in transfected cells; host or cells: Expi 293 cells (transient expression), membrane fraction
T1 sequence (Q9UKU6 1-1069): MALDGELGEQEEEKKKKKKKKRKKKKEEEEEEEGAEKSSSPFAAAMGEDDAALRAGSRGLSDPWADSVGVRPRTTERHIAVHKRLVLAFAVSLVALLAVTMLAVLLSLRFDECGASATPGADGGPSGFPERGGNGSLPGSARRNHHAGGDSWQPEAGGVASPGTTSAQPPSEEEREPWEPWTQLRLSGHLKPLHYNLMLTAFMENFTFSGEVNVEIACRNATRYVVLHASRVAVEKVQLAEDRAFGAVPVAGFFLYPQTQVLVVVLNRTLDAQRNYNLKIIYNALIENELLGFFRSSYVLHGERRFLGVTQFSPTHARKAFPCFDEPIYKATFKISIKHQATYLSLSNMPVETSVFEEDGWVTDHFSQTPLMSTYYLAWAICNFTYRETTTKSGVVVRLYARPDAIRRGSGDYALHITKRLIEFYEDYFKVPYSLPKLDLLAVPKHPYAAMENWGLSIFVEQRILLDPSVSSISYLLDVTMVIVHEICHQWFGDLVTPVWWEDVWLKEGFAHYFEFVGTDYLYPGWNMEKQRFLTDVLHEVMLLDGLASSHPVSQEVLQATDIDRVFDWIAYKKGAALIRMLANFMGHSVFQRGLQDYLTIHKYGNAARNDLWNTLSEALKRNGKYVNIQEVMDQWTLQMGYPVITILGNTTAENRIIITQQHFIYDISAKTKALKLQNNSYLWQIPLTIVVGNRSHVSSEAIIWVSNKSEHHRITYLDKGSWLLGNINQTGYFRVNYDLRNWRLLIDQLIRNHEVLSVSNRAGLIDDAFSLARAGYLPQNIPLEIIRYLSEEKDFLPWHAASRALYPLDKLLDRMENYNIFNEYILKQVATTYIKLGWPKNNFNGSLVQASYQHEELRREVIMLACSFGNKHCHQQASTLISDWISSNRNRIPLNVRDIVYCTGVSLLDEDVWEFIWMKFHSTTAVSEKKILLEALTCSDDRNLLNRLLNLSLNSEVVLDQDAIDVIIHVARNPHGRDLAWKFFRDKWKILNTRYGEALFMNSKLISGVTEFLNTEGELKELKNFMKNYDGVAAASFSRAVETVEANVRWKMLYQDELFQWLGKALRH
Assay: TRH-DE inhibition test (RapidFire MS measurement of product Cyclo (His-Pro))
Type: biochemical
Conditions: membrane fraction of Expi 293 cells expressing human TRH-DE; 10 μM TRH substrate; room temperature, 2 hours; 16-point concentration test
Method in brief: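 Inhibition derived from product/internal-standard ratios of Cyclo(His-Pro), quantified by RapidFire triple-quadrupole MS after acetonitrile:methanol quench, with IC50 fitted over 16 concentrations. Enzyme source: membranes of Expi 293 cells transiently expressing human TRH-DE, 4 μg/ml, pH 7.4 phosphate buffer. Incubation with 10 μM substrate ran 2 h at room temperature.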

## Cc1nn(C)c2c1C(=O)N(C1CC3(C1)CN(S(=O)(=O)c1ccccc1F)C3)[C@H](C)CO2 [Example 205]
  IC50: 14 nM

## COc1cccc(S(=O)(=O)N2CC3(CC(N4C(=O)c5cccnc5OCC4C)C3)C2)c1 (racemic) [Example 74]
  IC50: 918 nM

## CCC1(O)c2ccccc2C(=O)N1C1CC2(C1)CN(S(=O)(=O)c1ccccc1F)C2 (racemic) [Example 286]
  IC50: 213 nM

## CCC(=O)N1C[C@@H](C)N(C2CC3(C2)CN(S(=O)(=O)c2ccccc2F)C3)C(=O)c2ncccc21 [Example 303]
  IC50: 82 nM

## CC1CN(c2ncc3c(n2)OC[C@@H](C)N(C2CC4(C2)CN(S(=O)(=O)c2ccccc2F)C4)C3=O)CCO1 (mixture of isomers) [Example 386]
  IC50: 13 nM

## CC1c2ccncc2C(=O)N1C1CC2(C1)CN(S(=O)(=O)c1ccccc1F)C2 (stereo not drawn) [Example 296, 2-[2-(2-fluorophenyl)sulfonyl-2-azaspiro[3.3]heptan-6-yl]-1-methyl-1H-pyrrolo[3,4-c]pyridin-3-one]
  IC50: 419 nM

## CC1c2cccnc2C(=O)N1C1CC2(C1)CN(S(=O)(=O)c1ccccc1F)C2 (single isomer, unassigned) [Example 360]
  IC50: 86 nM

## C[C@@H]1COc2cc(N3CCCC3)ncc2C(=O)N1C1CC2(C1)CN(S(=O)(=O)c1ccccc1F)C2 [Example 142]
  IC50: 1 nM

## CCOc1ncc2c(n1)OC[C@@H](C)N(C1CC3(C1)CN(S(=O)(=O)c1ccccc1F)C3)C2=O [Example 374]
  IC50: 8 nM

## CC1C=Cc2ncccc2C(=O)N1C1CC2(C1)CN(S(=O)(=O)c1ccccc1F)C2 (racemic) [Example 113]
  IC50: 26 nM

## Cc1nc2c(cc1F)C(=O)N(C1CC3(C1)CN(S(=O)(=O)c1ccccc1[N+](=O)[O-])C3)[C@H](C)CO2 [Example 58]
  IC50: 180 nM

## CC1COc2ccccc2C(=O)N1C1CC2(C1)CN(S(=O)(=O)c1ccccc1F)C2 (stereo not drawn) [Example 239, 4-[2-(2-fluorophenyl)sulfonyl-2-azaspiro[3.3]heptan-6-yl]-3-methyl-2,3-dihydro-1,4-benzoxazepin-5-one]
  IC50: 11 nM

## CC1CCCN(c2cc3c(cn2)C(=O)N(C2CC4(C2)CN(S(=O)(=O)c2ccccc2F)C4)[C@H](C)CO3)C1 (mixture of isomers) [Example 152]
  IC50: 1 nM

## C[C@@H]1CNc2nc(N3C[C@H]4C[C@H]4C3)ccc2C(=O)N1C1CC2(C1)CN(S(=O)(=O)c1ccccc1F)C2 [Example 161]
  IC50: 1 nM

## CC1CN(C2CC3(C2)CN(S(=O)(=O)c2ccccc2F)C3)C(=O)c2ncccc2O1 (racemic) [Example 2]
  IC50: 1010 nM

## C[C@@H]1COc2cc(N3C[C@H]4C[C@H]4C3)ncc2C(=O)N1C1CC2(C1)CN(S(=O)(=O)c1ccccc1F)C2 [Example 148]
  IC50: < 1 nM

## C[C@@H]1CCN(CCC(F)(F)F)CC(=O)N1C1CC2(C1)CN(S(=O)(=O)c1ccccc1F)C2 [Example 448]
  IC50: 474 nM

## C[C@@H]1Cn2nc(C(F)(F)F)cc2C(=O)N1C1CC2(C1)CN(S(=O)(=O)c1ccccc1F)C2 [Example 228]
  IC50: 48 nM

## C[C@@H]1COc2cc(C#N)cnc2C(=O)N1C1CC2(C1)CN(S(=O)(=O)c1ccccc1F)C2 [Example 332, (3R)-4-[2-(2-fluorophenyl)sulfonyl-2-azaspiro[3.3]heptan-6-yl]-3-methyl-5-oxo-2,3-dihydropyrido[2,3-f][1,4]oxazepin-8-carbonitrile]
  IC50: 4 nM

## C[C@@H]1CNc2ncccc2C(=O)N1C1CC2(C1)CN(S(=O)(=O)c1ccccc1F)C2 [Example 255]
  IC50: 7 nM

## C[C@@H]1COc2cc(N3CCN(C)CC3)ncc2C(=O)N1C1CC2(C1)CN(S(=O)(=O)c1ccccc1F)C2 [Example 158]
  IC50: 6 nM

## C[C@@H]1COc2ncc(F)cc2C(=O)N1C1CC2(C1)CN(S(=O)(=O)c1ccccc1F)C2 [Example 27]
  IC50: 14 nM

## Cc1ccccc1S(=O)(=O)N1CC2(CC(N3C(=O)c4cccnc4OCC3C)C2)C1 (racemic) [Example 76]
  IC50: 566 nM

## CC1C=Cc2c(noc2C2CC2)C(=O)N1C1CC2(C1)CN(S(=O)(=O)c1ccccc1F)C2 (racemic) [Example 131]
  IC50: 32 nM

## CCCN(C(=O)c1cccc2[nH]c(C)nc12)C1CC2(C1)CN(S(=O)(=O)c1cc(C)ccc1F)C2 [Example 430]
  IC50: 48 nM

## C[C@@H]1CCN(C)CC(=O)N1C1CC2(C1)CN(S(=O)(=O)c1ccccc1F)C2 [Example 444]
  IC50: 789 nM

## COCCCN1C[C@@H](C)N(C2CC3(C2)CN(S(=O)(=O)c2ccccc2F)C3)C(=O)c2ncccc21 [Example 246]
  IC50: 22 nM

## COCC(=O)N1C[C@@H](C)N(C2CC3(C2)CN(S(=O)(=O)c2ccccc2F)C3)C(=O)c2ncccc21 [Example 307]
  IC50: 285 nM

## C[C@@H]1CCn2nc(F)c(Br)c2C(=O)N1C1CC2(C1)CN(S(=O)(=O)c1ccccc1F)C2 [Example 196]
  IC50: 15 nM

## C[C@@H]1COc2nc(N3CCCC3)ncc2C(=O)N1C1CC2(C1)CN(S(=O)(=O)c1ccccc1F)C2 [Example 381]
  IC50: 2 nM

## C[C@@H]1COc2nc(OC3CC(C#N)C3)ncc2C(=O)N1C1CC2(C1)CN(S(=O)(=O)c1ccccc1F)C2 (stereo in doubt) [Example 379]
  IC50: 10 nM

## Cc1nn(C2CC3(C2)CN(S(=O)(=O)c2ccccc2F)C3)c(=O)c2ncccc12 [Example 243]
  IC50: 436 nM

## Cc1ccc(F)c(S(=O)(=O)N2CC3(CC(N4C(=O)c5ccccc5C4C)C3)C2)c1 (racemic) [Example 272]
  IC50: 101 nM

## Cc1snc2c1C=C[C@@H](C)N(C1CC3(C1)CN(S(=O)(=O)c1ccccc1F)C3)C2=O [Example 126]
  IC50: 24 nM

## Cc1cc2n(n1)CC[C@@H](C)N(C1CC3(C1)CN(S(=O)(=O)c1ccccc1F)C3)C2=O [Example 184]
  IC50: 16 nM

## CC(C)c1nc2c(s1)C(=O)N(C1CC3(C1)CN(S(=O)(=O)c1ccccc1F)C3)[C@H](C)CC2 [Example 110, (6R)-5-[2-(2-fluorophenyl)sulfonyl-2-azaspiro[3.3]heptan-6-yl]-2-isopropyl-6-methyl-7,8-dihydro-6H-thiazolo[5,4-c]azepin-4-one]
  IC50: 4 nM

## CC1COc2ccc(F)nc2C(=O)N1C1CC2(C1)CN(S(=O)(=O)c1ccccc1F)C2 (racemic) [Example 9]
  IC50: 14 nM

## CC1CCc2c(noc2C2CC2)C(=O)N1C1CC2(C1)CN(S(=O)(=O)c1ccccc1F)C2 (stereo not drawn) [Example 104]
  IC50: 14 nM

## CC1COc2ncccc2C(=O)N1C1CC2(C1)CN(S(=O)(=O)c1ccccc1C(F)(F)F)C2 (racemic) [Example 78]
  IC50: 2330 nM

## C[C@@H]1CCc2nc([C@H]3C[C@H]3F)sc2C(=O)N1C1CC2(C1)CN(S(=O)(=O)c1ccccc1F)C2 [Example 95]
  IC50: 4 nM

## CC1COc2ccnc(C(F)(F)F)c2C(=O)N1C1CC2(C1)CN(S(=O)(=O)c1ccccc1F)C2 (racemic) [Example 23]
  IC50: 68 nM

## C[C@@H]1Cn2nc(F)c(C3CC3)c2C(=O)N1C1CC2(C1)CN(S(=O)(=O)c1ccccc1F)C2 [Example 327]
  IC50: 6 nM

## C[C@@H]1Cn2nc(F)c(Br)c2C(=O)N1C1CC2(C1)CN(S(=O)(=O)c1ccccc1F)C2 [Example 232]
  IC50: 21 nM

## CC1C=Cc2nc(C3(F)CC3)sc2C(=O)N1C1CC2(C1)CN(S(=O)(=O)c1ccccc1F)C2 (racemic) [Example 120]
  IC50: 11 nM

## C[C@@H]1Cn2cnc(C3CC3)c2C(=O)N1C1CC2(C1)CN(S(=O)(=O)c1ccccc1F)C2 [Example 328]
  IC50: 14 nM

## C[C@@H]1Cn2ncc(C3CC3)c2C(=O)N1C1CC2(C1)CN(S(=O)(=O)c1ccccc1F)C2 [Example 326]
  IC50: 4 nM

## Cc1cccc(S(=O)(=O)N2CC3(CC(N4C(=O)c5cccnc5OCC4C)C3)C2)c1 (racemic) [Example 77]
  IC50: 324 nM

## C[C@@H]1COc2cc(N3CCC(C(F)(F)F)C3)ncc2C(=O)N1C1CC2(C1)CN(S(=O)(=O)c1ccccc1F)C2 (mixture of isomers) [Example 145]
  IC50: 1 nM

## CC1CCc2nc(C(F)(F)F)sc2C(=O)N1C1CC2(C1)CN(S(=O)(=O)c1ccccc1F)C2 (single isomer, unassigned) [Example 352]
  IC50: 11 nM

## C[C@@H]1COc2nc(N3CC(C(F)(F)F)C3)ncc2C(=O)N1C1CC2(C1)CN(S(=O)(=O)c1ccccc1F)C2 [Example 404]
  IC50: 4 nM

## C[C@@H]1COc2cc(Nc3ccc(F)cc3)ncc2C(=O)N1C1CC2(C1)CN(S(=O)(=O)c1ccccc1F)C2 [Example 140]
  IC50: 1 nM
